{
  "source": "patent US20240293405A1",
  "about": "“(1H-PYRROLO[2,3-B]PYRIDIN-1-YL)PYRIMIDIN-2-YL-AMINO-PHENYL-ACRYLAMIDE INHIBITORS OF EGFR FOR USE IN THE TREATMENT OF BRAIN TUMORS” (Dana-Farber Cancer Institute, Inc., priority 2021, published 2024)",
  "key": {"[1]": {"system": "EGFRvIII, ERK1/2 and S6RP phosphorylation", "test": "Phosphorylation in CPEvIII neurosphere cultures (western blot)", "assay_type": "cell-based, mouse", "conditions": "CPEvIII neurospheres, 1 day, dose-dependent", "experimental": "FIG. 5B is the western blot analysis of primary mouse CPEvIII cells that were treated with Compound 1 for 1 day.\nWestern blot analysis was performed as described previously (Ni, J., et al. (2012). Cancer discovery 2, 425-433; Ni, J., et al. (2016). Nature medicine 22, 723-726; Ni, J., et al. (2017). Neurooncology 19, 22-30). Anti-pEGFR-1068 (#3777), anti-pEGFR-1173 (#4407), anti-EGFR (#4267), anti-pERK1/2 (#9101), anti-ERK1/2 (#9102), anti-S6RP (#2211), and anti-S6RP (#2217) antibodies were purchased from Cell Signaling Technology. Anti-a-Tubulin antibody was purchased from Sigma.\nNeural stem cells (NSCs) from E14.5 embryonic mice (Cdkn2a-null; Ptenf/f) striata were isolated and cultured as previously described (Rietze, R. L., and Reynolds, B. A. (2006). Methods in enzymology 419, 3-23). NSCs were infected twice with adenovirus expressing Cre recombinase (AdCre; MOI50) (University of Iowa) to knock out floxed Pten. Cells were then transduced with retrovirus expressing EGFRvIII (pBabe-puro-EGFRvIII) (from Dr. Charles Stiles, DFCI) and selected with 1 μg/ml puromycin. The resulting cells (Cdkn2anull; Ptennull; EGFRvIII, denominated CPEvIII) can form a glioma after grafted into the mouse brain. Tumors were then isolated and mechanically dissociated for expansion in vitro and in vivo. […]"}, "[2]": {"test": "H1975 SQ lung tumor xenograft in NOD.SCID mice", "assay_type": "in vivo", "conditions": "NOD.SCID, mouse, plasma; H1975 model, 4 hours post-dose, oral; read-out: plasma concentration at which anti-tumor activity was noted", "experimental": "(§1) Compound 1 was also evaluated in xenograft models of lung tumor cell lines harboring EGFR single and double mutations in the mouse."}, "[3]": {"system": "H1975 cells: EGFR L858R-T790M", "test": "H1975 SQ lung tumor xenograft in NOD.SCID mice", "assay_type": "in vivo", "conditions": "H1975 lung tumor implants, oral", "experimental": "as §1"}, "[4]": {"test": "Oral dog dose-range toxicity study", "assay_type": "in vivo", "experimental": "In the dog dose-range study, Compound 1 was given to male and female beagle dogs orally by gavage either once (30, 100, 600, 1000 mg/kg) or once daily for 14 days (30, 100, 300 mg/kg/day).\nThe HNSTD was estimated to be 100 mg/kg/day in this study."}, "CYP3A4": {"system": "CYP3A4", "test": "CYP 1A2, 2B6 and 3A4 induction, human hepatocytes", "assay_type": "in vitro ADME", "source_text": "Metabolism, inhibition and induction were not observed with other CYPs. Potential DDI interactions exist with drugs that are inhibitors of CYP3A4-T or those metabolized by CYP3A4/3A5; these DDI risks will be better defined once there are human pharmacokinetics (PK) data."}, "[5]": {"test": "Oral rat dose-range toxicity study", "assay_type": "in vivo", "experimental": "Male and female Sprague-Dawley rats were given Compound 1 orally by gavage either once (30, 100, 500, 1000 mg/kg/day) or once daily for up to 14 days (30, 100, 300 mg/kg/day). […] […]; this group was terminated on Day 9. […] The STD10 was estimated to be 100 mg/kg/day in this study."}, "[6]": {"biological_target": "ALK, EGFR and FLT3 mutants (Homo sapiens, UniProt P00533)", "sequence (P00533 25-1210 limits assumed, change not shown)": "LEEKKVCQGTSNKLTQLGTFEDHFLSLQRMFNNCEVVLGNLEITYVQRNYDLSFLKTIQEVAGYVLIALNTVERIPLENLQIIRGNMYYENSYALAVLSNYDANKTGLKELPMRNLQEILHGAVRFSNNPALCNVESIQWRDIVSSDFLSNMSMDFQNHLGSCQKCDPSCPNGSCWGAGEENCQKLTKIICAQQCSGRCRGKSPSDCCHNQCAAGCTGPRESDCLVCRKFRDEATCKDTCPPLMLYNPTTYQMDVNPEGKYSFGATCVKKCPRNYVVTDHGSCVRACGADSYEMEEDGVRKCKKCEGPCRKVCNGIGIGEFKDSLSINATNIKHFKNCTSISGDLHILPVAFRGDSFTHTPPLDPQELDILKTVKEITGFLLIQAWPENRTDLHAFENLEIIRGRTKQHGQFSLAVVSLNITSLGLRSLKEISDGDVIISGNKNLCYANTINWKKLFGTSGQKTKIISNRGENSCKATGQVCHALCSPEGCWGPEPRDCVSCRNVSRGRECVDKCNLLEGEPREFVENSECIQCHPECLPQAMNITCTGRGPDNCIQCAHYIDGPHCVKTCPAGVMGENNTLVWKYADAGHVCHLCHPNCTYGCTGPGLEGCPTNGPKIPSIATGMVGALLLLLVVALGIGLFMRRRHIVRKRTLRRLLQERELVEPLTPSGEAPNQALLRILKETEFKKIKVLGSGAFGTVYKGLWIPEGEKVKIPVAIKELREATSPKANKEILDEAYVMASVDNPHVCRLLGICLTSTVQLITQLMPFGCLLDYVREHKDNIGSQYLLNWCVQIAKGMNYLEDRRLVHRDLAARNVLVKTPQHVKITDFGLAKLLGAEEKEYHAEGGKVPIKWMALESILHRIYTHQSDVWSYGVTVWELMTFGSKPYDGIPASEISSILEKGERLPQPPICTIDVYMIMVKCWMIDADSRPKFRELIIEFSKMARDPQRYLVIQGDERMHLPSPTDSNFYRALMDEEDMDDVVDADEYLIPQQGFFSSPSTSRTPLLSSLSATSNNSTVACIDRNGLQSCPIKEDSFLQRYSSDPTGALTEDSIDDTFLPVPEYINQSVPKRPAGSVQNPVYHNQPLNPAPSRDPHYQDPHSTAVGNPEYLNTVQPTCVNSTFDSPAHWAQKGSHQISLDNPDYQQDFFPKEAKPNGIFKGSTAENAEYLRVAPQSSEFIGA", "test": "Targeted kinase binding constants, mutant kinases (summary)", "conditions": "read-out: mutant kinase binding (Kd) for several EGFR single and double mutants", "experimental": "Compound 1 and Compound 2 (major metabolite) were evaluated in a panel of 468 human kinases and disease relevant mutant variants. Compound 1 and Compound 2 bound to few non-mutant kinases at <1% of control. […] While there is some variability between Compound 1 and Compound 2, it is clear that both compounds are very effective at binding to a large panel of mutant kinases. […] Binding constant to wild type EGFR was 4.9 nM."}, "[7]": {"system": "H1975 cells (L858R/T790M)", "conditions": "Wang 2020, read-out: IC50, growth inhibition; cited from earlier work"}, "EGFRvIII": {"biological_target": "EGFRvIII (Homo sapiens, UniProt P00533, DELINS30-297G)", "sequence (P00533 with tags, fused parts or gaps DELINS30-297G)": "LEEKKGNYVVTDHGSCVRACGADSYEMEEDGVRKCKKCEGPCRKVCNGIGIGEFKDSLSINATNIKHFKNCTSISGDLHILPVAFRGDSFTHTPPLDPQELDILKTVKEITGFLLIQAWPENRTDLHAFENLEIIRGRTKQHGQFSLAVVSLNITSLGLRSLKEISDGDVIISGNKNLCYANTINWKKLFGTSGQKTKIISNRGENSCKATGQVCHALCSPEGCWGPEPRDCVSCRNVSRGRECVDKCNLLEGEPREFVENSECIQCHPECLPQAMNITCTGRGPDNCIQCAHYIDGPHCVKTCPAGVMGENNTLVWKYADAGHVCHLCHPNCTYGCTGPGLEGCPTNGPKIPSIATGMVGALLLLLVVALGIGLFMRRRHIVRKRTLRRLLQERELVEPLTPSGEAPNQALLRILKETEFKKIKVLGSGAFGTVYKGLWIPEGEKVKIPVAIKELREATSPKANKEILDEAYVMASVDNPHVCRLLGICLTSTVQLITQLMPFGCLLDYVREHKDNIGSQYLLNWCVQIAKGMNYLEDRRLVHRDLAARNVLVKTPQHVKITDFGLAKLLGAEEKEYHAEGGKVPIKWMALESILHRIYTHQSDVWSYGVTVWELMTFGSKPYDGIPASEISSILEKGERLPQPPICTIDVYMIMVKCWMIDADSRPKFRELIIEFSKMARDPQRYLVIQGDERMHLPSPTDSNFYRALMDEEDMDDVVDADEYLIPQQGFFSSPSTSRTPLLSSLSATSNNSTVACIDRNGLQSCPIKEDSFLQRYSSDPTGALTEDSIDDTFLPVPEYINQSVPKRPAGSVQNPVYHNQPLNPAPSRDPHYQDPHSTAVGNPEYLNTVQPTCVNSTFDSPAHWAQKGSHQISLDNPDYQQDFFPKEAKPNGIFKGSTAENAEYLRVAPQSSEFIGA", "test": "EGFRvIII phosphorylation in U251-EGFRvIII cells (western blot)", "assay_type": "cell-based", "set-up": "expressed in transfected cells; host or cells: U251 (human GBM cell line), retroviral transduction", "conditions": "20 hours, read-out: IC50 on EGFRvIII phosphorylation (pEGFRvIII1068)", "source_text": "Anti-a-Tubulin antibody was purchased from Sigma.\nIn parallel, the conventional human GBM U251 cell line was used as a surrogate model for both in vitro and in vivo studies. U251 cells were engineered to stably express EGFRvIII (U251-EGFRvIII) via retroviral-mediated gene transfer."}, "[8]": {"test": "In vivo metabolite identification", "set-up": "species or system rat, dog and monkey", "source_text": "In in vivo studies in rat, dog and monkey, 35 metabolites were identified. The major circulating compound in all species was parent compound; parent was also a major component in rat feces. Compound 2, demethylated metabolite, was a major active metabolite in all species in plasma and in rat feces. M34, glutathione conjugation and hydrolysis and acetylation metabolite, was a major metabolite in rat urine. Compound 1 was extensively metabolized during excretion with 31 metabolites in rat urine and 32 metabolites in rat feces."}, "[9]": {"system": "phosphorylated EGFR and cell viability", "test": "In vitro GBM studies, summary (phosphorylated EGFR and cell viability)", "assay_type": "cell-based", "conditions": "GBM models; read-out: IC50 range in in vitro studies targeting decreases in phosphorylated EGFR and cell viability", "source_text": "Compound 1, a third-generation tyrosine kinase inhibitor, is under development for GBM (Wang 2020) Compound 1 binds covalently to its target."}, "[10]": {"test": "Skin toxicity in mice (visual observation)", "assay_type": "in vivo", "conditions": "Compound 1 10-50 mg/kg/day vs osimertinib 10-25 mg/kg/day", "source_text": ". (osmertinib, FIG. 6A; Compound 1, FIG. 6B)."}},
  "note": "Where “and” joins values, the source holds several entries; their conditions need not be identical. Equal values may be shown once. Entries after “also recorded” stand apart in the source; their conditions may differ.",
  "data": [
    {"smiles": "C=CC(=O)Nc1cc(Nc2nccc(-n3ccc4cccnc43)n2)c(OC)cc1N(C)CCN(C)C", "note": "[Compound 1, N-(5-((4-(1H-pyrrolo[2,3-b]pyridin-1-yl)pyrimidin-2-yl)amino)-2-((2-(dimethylamino)ethyl)(methyl)amino)-4-methoxyphenyl)acrylamide]", "values": [
      {"measurement": "phosphorylation of EGFRvIII, ERK1/2 and S6RP", "setting": "[1]", "result": "markedly reduced phosphorylation; also recorded: Marked"},
      {"measurement": "concentration at 4 h", "setting": "[2]", "result": "800 ng/mL and 1.6 µM"},
      {"measurement": "tumor response", "setting": "[3]", "result": "substantial tumor regression"},
      {"measurement": "tolerability of a single oral dose", "setting": "[4]; 30 to 1000 mg/kg", "result": "well tolerated"},
      {"measurement": "HNSTD", "setting": "[4]; 14 days oral, estimated", "result": 100, "unit": "mg/kg/day"},
      {"measurement": "CYP induction based on enzyme activity", "setting": "CYP3A4", "result": "no CYP induction"},
      {"measurement": "tolerability of a single oral dose", "setting": "[5]; 30 to 1000 mg/kg", "result": "well tolerated"},
      {"measurement": "toxicity at 30 mg/kg/day", "setting": "[5]; 14 days", "result": "No significant toxicity"},
      {"measurement": "STD10", "setting": "[5]; up to 14 days oral, estimated", "result": 100, "unit": "mg/kg/day"},
      {"measurement": "Kd", "setting": "[6]", "result": "< 0.001", "unit": "µM"},
      {"measurement": "IC50", "setting": "[7]", "result": 0.00439, "unit": "µM"},
      {"measurement": "IC50", "setting": "EGFRvIII", "result": "0.174 µM and 0.17 µM"},
      {"measurement": "number of metabolites in rat feces", "setting": "[8]; in vivo", "result": 32},
      {"measurement": "number of metabolites in rat urine", "setting": "[8]; in vivo", "result": 31},
      {"measurement": "number of metabolites identified in vivo", "setting": "[8]; rat, dog and monkey", "result": 35},
      {"measurement": "IC50", "setting": "[9]", "result": "0.17 to 3.28", "unit": "µM"},
      {"measurement": "skin toxicity (visual observation)", "setting": "[10]", "result": "Lower Skin Toxicity than Osimertinib"}
    ]}
  ]
}
